Target: P. falciparum apicoplast DNA polymerase (Pf-apPOL) (Plasmodium falciparum, UniProt Q8ILY1)
Experiment: Fluorescence-based high-throughput DNA polymerase assay (molecular beacon), primary screen and dose-response;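 for % inhibition ApPOL 90': test concentration in µM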;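 for % inhibition apPOL 180': test concentration in µM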
Type: biochemical
Conditions: for DNA Pol: 90 min, 10 µM
In short: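 Single-point screening used 10 µM compound with 20 nM polymerase, 20 nM hairpin substrate and 6 µM dNTPs for 90 min at 25 °C. Confirmatory titrations (2.5–80 µM) followed fluorescence at three times, and IC50 was derived from a fit including a cooperativity term n.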

[1] = 'DNA Pol' of the 186 hits list (primary screen value)

Chain of P. falciparum apicoplast DNA polymerase (Pf-apPOL) (Q8ILY1 entry or part of it): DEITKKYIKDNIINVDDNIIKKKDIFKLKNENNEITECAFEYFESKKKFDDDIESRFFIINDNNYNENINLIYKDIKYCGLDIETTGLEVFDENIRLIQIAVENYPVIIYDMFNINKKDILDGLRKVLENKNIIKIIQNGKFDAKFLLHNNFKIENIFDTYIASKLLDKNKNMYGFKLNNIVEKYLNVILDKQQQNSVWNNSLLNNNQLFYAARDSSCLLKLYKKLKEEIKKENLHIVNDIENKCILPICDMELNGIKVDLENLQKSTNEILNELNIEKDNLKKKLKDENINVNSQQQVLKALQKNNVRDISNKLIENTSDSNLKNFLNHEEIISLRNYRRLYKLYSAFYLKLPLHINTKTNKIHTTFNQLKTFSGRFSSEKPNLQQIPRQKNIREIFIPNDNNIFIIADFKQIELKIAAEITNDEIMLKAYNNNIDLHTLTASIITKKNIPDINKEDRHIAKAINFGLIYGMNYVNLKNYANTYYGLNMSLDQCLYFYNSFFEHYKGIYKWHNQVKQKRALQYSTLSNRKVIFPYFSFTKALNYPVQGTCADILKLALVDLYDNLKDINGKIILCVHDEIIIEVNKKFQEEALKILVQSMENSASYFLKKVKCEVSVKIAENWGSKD

Q: Which results are given for `O=C1N=C(Nc2cccc(Cl)c2Cl)S/C1=C\c1ccco1` [Molecule 3, O=C1N=C(S/C/1=C\c1ccco1)Nc1cccc(c1Cl)Cl]?
A: DNA Pol [1]: 74; DNA Pol (DNA Pol (primary screen value)): 74; % inhibition Apo pol 10' (DRC-1, concentration 2.5): 26.4621%; % inhibition Apo pol 10' (DRC-1, concentration 5): 50.3585%; % inhibition Apo pol 10' (DRC-1, concentration 10): 71.7156%; % inhibition Apo pol 10' (DRC-1, concentration 20): 70.1447%; % inhibition Apo pol 10' (DRC-1, concentration 40): 64.4851%; % inhibition Apo pol 10' (DRC-1, concentration 80): 49.9988%; % inhibition Apol 90' (DRC-1, concentration 2.5): 14.8677%; % inhibition Apol 90' (DRC-1, concentration 5): 38.7366%; % inhibition Apol 90' (DRC-1, concentration 10): 64.2373%; % inhibition Apol 90' (DRC-1, concentration 20): 68.803%; % inhibition Apol 90' (DRC-1, concentration 40): 72.5757%; % inhibition Apol 90' (DRC-1, concentration 80): 68.4026%; % inhibition apPOL 180' (DRC-1, concentration 2.5): 3.99%; % inhibition apPOL 180' (DRC-1, concentration 5): 24.8255%; % inhibition apPOL 180' (DRC-1, concentration 10): 52.4106%; % inhibition apPOL 180' (DRC-1, concentration 20): 60.3634%; % inhibition apPOL 180' (DRC-1, concentration 40): 70.3618%; % inhibition apPOL 180' (DRC-1, concentration 80): 71.4479%; % inhibition Apo pol 5' (DRC-2, concentration 2.5): 35%; % inhibition Apo pol 5' (DRC-2, concentration 5): 38%; % inhibition Apo pol 5' (DRC-2, concentration 10): 42%; % inhibition Apo pol 5' (DRC-2, concentration 20): 31%; % inhibition Apo pol 5' (DRC-2, concentration 40): 11%; % inhibition Apo pol 5' (DRC-2, concentration 80): -21%; % inhibition Apol 40' (DRC-2, concentration 2.5): 37%; % inhibition Apol 40' (DRC-2, concentration 5): 44%; % inhibition Apol 40' (DRC-2, concentration 10): 58%; % inhibition Apol 40' (DRC-2, concentration 20): 56%; % inhibition Apol 40' (DRC-2, concentration 40): 44%; % inhibition Apol 40' (DRC-2, concentration 80): 25%; % inhibition ApPOL 90' (DRC-2, concentration 2.5): 34%; % inhibition ApPOL 90' (DRC-2, concentration 5): 42%; % inhibition ApPOL 90' (DRC-2, concentration 10): 59%; % inhibition ApPOL 90' (DRC-2, concentration 20): 60%; % inhibition ApPOL 90' (DRC-2, concentration 40): 53%; % inhibition ApPOL 90' (DRC-2, concentration 80): 40%; % inhibition apPOL 180' (DRC-2, concentration 2.5): 22%; % inhibition apPOL 180' (DRC-2, concentration 5): 31%; % inhibition apPOL 180' (DRC-2, concentration 10): 54%; % inhibition apPOL 180' (DRC-2, concentration 20): 62%; % inhibition apPOL 180' (DRC-2, concentration 40): 60%; % inhibition apPOL 180' (DRC-2, concentration 80): 53%

Q: What does the source list for `O=C(NC(C(Cl)Cl)S(=O)(=O)c1ccccc1)c1ccccc1` (stereo not shown) [KU0045239]?
A: DNA Pol [1]: 41; DNA Pol (DNA Pol (primary screen value)): 41; % inhibition Apo pol 10' (DRC-1, concentration 2.5): 21.4346%; % inhibition Apo pol 10' (DRC-1, concentration 5): 25.395%; % inhibition Apo pol 10' (DRC-1, concentration 10): 48.7805%; % inhibition Apo pol 10' (DRC-1, concentration 20): 67.0388%; % inhibition Apo pol 10' (DRC-1, concentration 40): 77.5747%; % inhibition Apo pol 10' (DRC-1, concentration 80): 80.3513%; % inhibition Apol 90' (DRC-1, concentration 2.5): 13.64%; % inhibition Apol 90' (DRC-1, concentration 5): 16.8163%; % inhibition Apol 90' (DRC-1, concentration 10): 39.9321%; % inhibition Apol 90' (DRC-1, concentration 20): 58.936%; % inhibition Apol 90' (DRC-1, concentration 40): 71.3995%; % inhibition Apol 90' (DRC-1, concentration 80): 76.3715%; % inhibition apPOL 180' (DRC-1, concentration 2.5): 5.305%; % inhibition apPOL 180' (DRC-1, concentration 5): 7.81%; % inhibition apPOL 180' (DRC-1, concentration 10): 29.3225%; % inhibition apPOL 180' (DRC-1, concentration 20): 48.9159%; % inhibition apPOL 180' (DRC-1, concentration 40): 64.7265%; % inhibition apPOL 180' (DRC-1, concentration 80): 71.27%; % inhibition Apo pol 5' (DRC-2, concentration 2.5): 4%; % inhibition Apo pol 5' (DRC-2, concentration 5): 18%; % inhibition Apo pol 5' (DRC-2, concentration 10): 26%; % inhibition Apo pol 5' (DRC-2, concentration 20): 59%; % inhibition Apo pol 5' (DRC-2, concentration 40): 65%; % inhibition Apo pol 5' (DRC-2, concentration 80): 46%; % inhibition Apol 40' (DRC-2, concentration 2.5): 11%; % inhibition Apol 40' (DRC-2, concentration 5): 25%; % inhibition Apol 40' (DRC-2, concentration 10): 36%; % inhibition Apol 40' (DRC-2, concentration 20): 69%; % inhibition Apol 40' (DRC-2, concentration 40): 76%; % inhibition Apol 40' (DRC-2, concentration 80): 62%; % inhibition ApPOL 90' (DRC-2, concentration 2.5): 11%; % inhibition ApPOL 90' (DRC-2, concentration 5): 24%; % inhibition ApPOL 90' (DRC-2, concentration 10): 35%; % inhibition ApPOL 90' (DRC-2, concentration 20): 68%; % inhibition ApPOL 90' (DRC-2, concentration 40): 76%; % inhibition ApPOL 90' (DRC-2, concentration 80): 64%; % inhibition apPOL 180' (DRC-2, concentration 2.5): 6.53%; % inhibition apPOL 180' (DRC-2, concentration 5): 11%; % inhibition apPOL 180' (DRC-2, concentration 10): 21%; % inhibition apPOL 180' (DRC-2, concentration 20): 58%; % inhibition apPOL 180' (DRC-2, concentration 40): 69%; % inhibition apPOL 180' (DRC-2, concentration 80): 58%
